Experimental data taken from patent US20220195066A1, “ANTI-CEA IMMUNOCONJUGATES, AND USES THEREOF” (BOLT BIOTHERAPEUTICS, INC., priority 2020, published 2022).

Columns and labels:
human TLR7 = molecular target: T1, human TLR7 (Homo sapiens, UniProt Q9NYK1); experiment: HEK Reporter Assay, HEK293 NFKB reporter cells expressing human TLR7; assay type: cell-based; settings: read-out: HEK293 hTLR7 EC50
T1 construct: host or cells: HEK293 NF-kB reporter cells
T1 sequence (Q9NYK1 27-1049): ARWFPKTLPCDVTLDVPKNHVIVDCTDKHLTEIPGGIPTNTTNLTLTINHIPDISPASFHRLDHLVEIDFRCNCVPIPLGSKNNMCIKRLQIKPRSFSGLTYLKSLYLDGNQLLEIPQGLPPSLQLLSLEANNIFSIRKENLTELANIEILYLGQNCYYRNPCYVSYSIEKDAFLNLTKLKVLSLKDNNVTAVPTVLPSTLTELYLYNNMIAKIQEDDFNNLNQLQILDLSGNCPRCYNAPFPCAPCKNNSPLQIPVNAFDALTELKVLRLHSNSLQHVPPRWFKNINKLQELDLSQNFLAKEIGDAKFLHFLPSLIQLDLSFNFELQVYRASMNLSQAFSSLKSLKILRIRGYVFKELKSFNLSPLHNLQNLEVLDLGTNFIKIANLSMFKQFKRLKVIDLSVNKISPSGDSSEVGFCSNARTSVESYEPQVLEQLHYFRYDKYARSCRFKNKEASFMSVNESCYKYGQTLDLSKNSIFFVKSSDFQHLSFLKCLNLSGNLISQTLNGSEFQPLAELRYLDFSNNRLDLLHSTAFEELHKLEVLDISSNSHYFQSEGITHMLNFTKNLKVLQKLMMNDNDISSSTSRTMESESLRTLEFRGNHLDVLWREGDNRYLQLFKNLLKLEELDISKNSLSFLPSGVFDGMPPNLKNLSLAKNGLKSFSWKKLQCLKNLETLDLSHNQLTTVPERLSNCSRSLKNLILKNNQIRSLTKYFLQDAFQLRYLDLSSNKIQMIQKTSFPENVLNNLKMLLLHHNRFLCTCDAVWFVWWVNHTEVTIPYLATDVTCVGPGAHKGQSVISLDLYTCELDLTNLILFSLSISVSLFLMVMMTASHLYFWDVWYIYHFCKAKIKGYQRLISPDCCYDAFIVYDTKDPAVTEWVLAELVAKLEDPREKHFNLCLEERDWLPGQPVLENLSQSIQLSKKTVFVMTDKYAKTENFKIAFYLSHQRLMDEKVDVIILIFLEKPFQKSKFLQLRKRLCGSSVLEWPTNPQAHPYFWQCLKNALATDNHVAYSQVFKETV
Procedure: (§1) Each compound was synthesized, purified, and characterized by mass spectrometry and shown to have the mass indicated. Additional experimental procedures are found in the Examples. Activity against Human Embryonic Kidney (HEK) 293 NFKB reporter cells expressing human TLR7 or human TLR8 was measured according to Example 202.
(§2) Human Embryonic Kidney (HEK293) reporter cells expressing human TLR7 or human TLR8 (InvivoGen, San Diego Calif.), were used with vendor protocols for cellular propagation and experimentation. Briefly, cells were grown to 80-85% confluence at 5% CO2 in DMEM supplemented with 10% FBS, ZEOCIN™, and Blasticidin. Cells were then seeded in 96-well flat plates at 4×10^4 cells/well with substrate containing HEK detection medium and immunostimulatory molecules.

human TLR8 = molecular target: T2, human TLR8 (Homo sapiens, UniProt Q9NR97); experiment: HEK Reporter Assay, HEK293 NFKB reporter cells expressing human TLR8; assay type: cell-based; settings: read-out: HEK293 hTLR8 EC50
T2 construct: host or cells: HEK293 NF-kB reporter cells
T2 sequence (Q9NR97 27-1041): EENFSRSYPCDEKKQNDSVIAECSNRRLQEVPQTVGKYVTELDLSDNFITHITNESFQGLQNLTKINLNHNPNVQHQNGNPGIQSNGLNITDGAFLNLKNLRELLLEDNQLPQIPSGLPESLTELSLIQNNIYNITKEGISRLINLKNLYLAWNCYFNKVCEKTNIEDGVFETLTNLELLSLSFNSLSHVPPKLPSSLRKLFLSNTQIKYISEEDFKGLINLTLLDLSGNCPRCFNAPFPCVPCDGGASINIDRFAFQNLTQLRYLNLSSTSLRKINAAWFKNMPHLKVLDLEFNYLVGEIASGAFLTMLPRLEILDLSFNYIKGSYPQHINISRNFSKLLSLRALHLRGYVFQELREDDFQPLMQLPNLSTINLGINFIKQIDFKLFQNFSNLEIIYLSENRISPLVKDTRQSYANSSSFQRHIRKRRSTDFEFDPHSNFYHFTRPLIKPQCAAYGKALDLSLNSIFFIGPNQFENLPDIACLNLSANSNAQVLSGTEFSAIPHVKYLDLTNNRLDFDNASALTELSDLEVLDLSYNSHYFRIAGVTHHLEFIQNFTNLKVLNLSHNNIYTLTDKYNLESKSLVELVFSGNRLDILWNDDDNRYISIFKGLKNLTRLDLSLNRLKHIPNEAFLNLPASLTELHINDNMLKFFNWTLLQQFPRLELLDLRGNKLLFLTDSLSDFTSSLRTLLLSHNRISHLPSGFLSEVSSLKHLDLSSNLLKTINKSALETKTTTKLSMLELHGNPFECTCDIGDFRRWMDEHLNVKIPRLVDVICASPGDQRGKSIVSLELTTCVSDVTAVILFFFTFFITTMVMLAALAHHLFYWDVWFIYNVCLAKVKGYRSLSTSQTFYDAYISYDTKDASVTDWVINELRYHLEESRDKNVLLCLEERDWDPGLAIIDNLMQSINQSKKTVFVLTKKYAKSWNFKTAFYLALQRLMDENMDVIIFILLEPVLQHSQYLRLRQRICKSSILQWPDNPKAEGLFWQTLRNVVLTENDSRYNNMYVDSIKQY
Procedure: as §1, §2

| SMILES | EC50 (human TLR7) [nM] | EC50 (human TLR8) [nM] |
| --- | --- | --- |
| CCCN(OCCNC(=O)OC(C)C)C(=O)C1=Cc2ccc(-c3cncc(S(=O)(=O)N4CC(CN)C4)c3)cc2N=C(N)C1 [HxBz-35] | 684 | 174 |
| CCCN(OCC)C(=O)C1=Cc2ccc(-c3ccc(CN)nc3)cc2N=C(N)C1 [HxBz-36, 2-amino-8-[6-(aminomethyl)-3-pyridyl]-N-ethoxy-N-propyl-3H-1-benzazepine-4-carboxamide] | 439 | 54 |
| CCCN(CCCNC(=O)OC1CCC1)C(=O)C1=Cc2ccc(-c3ccc(CN)nc3)cc2N=C(N)C1 [HxBz-38] | 56 | 153 |
| CCCN(OCC)C(=O)C1=Cc2ccc(-c3cncc(CN)c3)cc2N=C(N)C1 [HxBz-39, 2-amino-8-(5-(aminomethyl)pyridin-3-yl)-N-ethoxy-N-propyl-3H-benzo[b]azepine-4-carboxamide] | 1780 | 65 |
| CCCN(CCCNC(=O)OC1CCC1)C(=O)C1=Cc2ccc(-c3cncc(CN)c3)cc2N=C(N)C1 [HxBz-40] | 357 | 755 |
| CCCN(OCc1ccn[nH]1)C(=O)C1=Cc2ccc(-c3cnc(CN)nc3)cc2N=C(N)C1 [HxBz-41, 2-amino-8-[2-(aminomethyl)pyrimidin-5-yl]-N-propyl-N-(1H-pyrazol-5-ylmethoxy)-3H-1-benzazepine-4-carboxamide] | 3930 | 128 |
| CCCN(CCCOC(=O)NC1CCC1)C(=O)C1=Cc2ccc(-c3cnc(CN)nc3)cc2N=C(N)C1 [HxBz-45, 3-[[2-amino-8-[2-(aminomethyl)pyrimidin-5-yl]-3H-1-benzazepine-4-carbonyl]-propyl-amino]propyl N-cyclobutylcarbamate] | 825 | 325 |
| CCCN(OCCNC(=O)OC1CCC1)C(=O)C1=Cc2ccc(-c3ccc(CN)nc3)cc2N=C(N)C1 [HxBz-47] | 35 | 12 |
